How the values were obtained:
[1] = test system: G4mod1 (DNA, G4, 5-hydroxymethylcytosine at 7) CCGGGGCGGGCCGGGGGCGGGGTC; assay: ECD thermal melting; settings: KCl concentration not stated for this experiment; 50 mM Tris-HCl pH 7.4; 10 µM TMPyP4, 5 µM DNA
[2] = test system: G4_1-4 (DNA, G4) CCGGGGCGGGCCGGGGGCGGGGTC; assay: ECD thermal melting; settings: KCl concentration not stated for this experiment; 50 mM Tris-HCl pH 7.4; 10 µM TMPyP4, 5 µM DNA

- ΔTM [1]: 12 °C
- ΔTM [2]: 12 °C
SMILES: C[n+]1ccc(-c2c3nc(c(-c4cc[n+](C)cc4)c4ccc([nH]4)c(-c4cc[n+](C)cc4)c4nc(c(-c5cc[n+](C)cc5)c5ccc2[nH]5)C=C4)C=C3)cc1

Reference: PMC5976936 (2018)
